The values below come from patent US12252531B2, “Methods of screening for high-affinity, isoform-selective TGFβ1 inhibitors” (Scholar Rock, Inc., priority 2018, dated 2025).

Series [1] deals with TGFβ downstream tonic signaling. Particulars: non-diseased rat BAL; cited from earlier work.
The nature of series [2]: Safety/toxicology study in rats. Particulars: rat, in vivo. An excerpt:
Animals were sacrificed on Day 29 and necropsies performed.
Both halves were submitted for embedding.

The test system of series [3] is intratumoral immune cells in MBT2 tumors. Nature of the series: MBT2 tumor immune contexture (flow cytometry, IHC, qPCR). The format is in vivo, mouse. Particulars: MBT2 tumors (FIG. 30F). As for the experimental part: Each study group contained 12 mice with MBT2 tumors as described herein. Ab6-treatment group received the antibody weekly, on day 1 and day 8, at 10 mg/kg. Anti-PD1 treatment group was treated biweekly at 10 mg/kg per injection, on days 1, 4, 8 and 11, total of 20 mg/kg per week. […] On day 13, tumors were collected from the mice as shown above.
Flow cytometric analysis: Tumor-associated immune cell subsets were also analyzed by tumor flow cytometry in MBT-2 tumors. Briefly, tumors were excised and weighed prior to dissociation using the Tumor Dissociation Kit for gentleMACS (Miltenyi). Samples were filtered through a 70 μm cell strainer to remove any aggregates. […] Flow cytometry was performed on a Attune NxT (ThermoFisher) and analyzed with FlowJo (BD Bioscience).
For immunohistochemical analysis, tumors from six animals were cut in halves and fixed. […] FIG. 30E provides the quantitation of the IHC data, shown as % of CD8-positive cells of total nuclei. […]
A general note: Flow cytometry measures light scatter and fluorescence of single cells or particles in a stream.

Regarding `c1ccc(-c2nn3c(c2-c2ccnc4cc(OCCN5CCOCC5)ccc24)CCC3)nc1` [LY2109761], the “inhibition of TGFβ downstream tonic signaling” value in series [1] is “shown to inhibit TGFβ downstream tonic signaling”. Besides, the bone findings entry in series [2] is “macroscopic abnormally shaped sternum and microscopic increased thickness of the hypertrophic zone in the endplate of the sternum and physis of the femur and tibia”. The “incidence/severity of bone findings compared with pan-TGFβ antibody” value in series [2] (po) was “higher incidence and/or severity”.

B1: Ab6-mIgG1: chimeric antibody with the human V domains of Ab6 fused to mouse IgG1/kappa constant domains (protein)
heavy chain: EVQLVESGGGLVQPGGSLRLSCTASGFTFSSFSMDWVRQAPGKGLEWVSYISPSADTIYYADSVKGRFTISRDNAKNTLYLQMNSLRAEDTAVYYCARGVLDYGDMLMPWGQGTLVTVSS
light chain: DIQMTQSPSSLSASVGDRVTITCQASQDITNYLNWYQQKPGKAPKLLIYDASNLETGVPSRFSGSGSGTDFTFTISSLQPEDIATYYCQQADNHPPWTFGGGTKVEIK
In the case of B1, in series [3], the “phospho-SMAD3 staining near tumor vascular endothelium (IHC)” value is listed as “much diminished”.
